Reference: patent US20250115612A1, “CERTAIN 2,5-DIAZABICYCLO[4.2.0]OCTANES AND OCTAHYDROFURO[3,4-B]PYRAZINES AS GLP-1 RECEPTOR MODULATORS” (ASTRAZENECA AB, priority 2021, published 2025)

What was measured:
GLP-1R = molecular target: T1, GLP-1R (Homo sapiens, UniProt P43220); assay: EndoC cAMP accumulation assay (HTRF, EndoC-βH1 cells); assay type: cell-based; settings: EndoC-βH1 human pancreatic β cell line
T1 construct: host or cells: EndoC-βH1
Text: EndoC cAMP Accumulation Assay
A HTRF cAMP assay (cAMP Gs dynamic kit; CisoBio Cat #62AM4PEJ) was used to identify agonists of GLP-1R in a pancreatic insulinoma cell line (EndoC-PH1). […] EndoC-βH1 cells have detectable GLP-1R messenger ribonucleic acid (mRNA) as detected by quantitative polymerase chain reaction (qPCR). […] The EndoC-βH1 cell line is a valid model of human beta cells and applicable for screenings to identify novel drug target candidates (Mol. Metab., 2018, 8, 144-157). CisBio HTRF cAMP kits are based on a competitive immunoassay using cryptate-labelled anti-cAMP antibody and d2-labeled cAMP. The detection kit is intended for the direct quantitative determination of cAMP. The specific signal (i.e. energy transfer) is inversely proportional to the concentration of cAMP in the standard or sample. Test compounds (10 mM in DMSO) were diluted into assay buffer (HBSS (Sigma #H8264) supplemented with 25 mM HEPES (Gibco #15630, pH 7.4), 0.1% BSA (Sigma #A3059) and 0.5 mM IBMX (Sigma #I7018) included fresh on the day of the assay) into 96 well U-bottom plates (Greiner #650201). Diluted compounds were transferred to ECHO source polypropelene plates (Labcyte #P-05525) and dose response curves were dispensed acoustically using ECHO 550 into black shallow-well u-bottom 384-well HTRF Assay Plates (Corning 4514).
Cryovials of EndoC-H1 (supplied at 1×10e^7 cells/vial) were used directly for screening. The cryovials and were removed from N2(l) and thawed rapidly in a 37° C. water bath. The cells were resuspended in assay buffer and centrifuged at 300 g for 5 min. Cells were resuspended in assay buffer at the appropriate concentration, typically at 12e5 cells per mL (3000 cells per well, dependent on cell batch) and 2.5 μL diluted cells were added to all wells of destination plate by Multidrop combi reagent dispenser (Thermofisher). The plates were incubated at rt for 30 min. The assay was stopped by adding 2.5 μL anti-cAMP cryptate solution to all wells and 2.5 μL cAMP-d2 solution (both diluted 1:20 in lysis buffer) to columns 1-22 by Combi drop. A volume of 2.5 μL cAMP-d2 solution was added to wells E23 to P24 and 2.5 μL lysis buffer added to wells A23 to D24 by multichannel pipette. The plates were incubated at rt for 1 h and read on an Envision plate reader using excitation wavelength of 320 nm and emission of 590 nm and 660 nm.
Raw data from Envision is converted to % DeltaF according to the manufacturer's instructions. Dose response curves are analysed via 4-Parameter Logistical Analysis and assay plate Z′ values obtained. Samples are graphed as percentage (%) activation plots compared to GIP (1-42, Bachem H-5645) with assay window defined by negative control as basal cell cAMP levels and positive control are defined by maximum GIP (82.5 nM) signal. GLP-1 (7-36 amide, Bachem H-6795) dose response curve was included on all plates.

[1] = molecular target: T2, human phosphodiesterase-3A (Homo sapiens, UniProt Q14432); assay: PDE3 assay (formation of 5'AMP from cAMP, SPA); assay type: biochemical; settings: human recombinant enzyme expressed in Sf9 cells
T2 construct: host or cells: Sf9 (Spodoptera frugiperda)
T2 sequence (Q14432 whole entry): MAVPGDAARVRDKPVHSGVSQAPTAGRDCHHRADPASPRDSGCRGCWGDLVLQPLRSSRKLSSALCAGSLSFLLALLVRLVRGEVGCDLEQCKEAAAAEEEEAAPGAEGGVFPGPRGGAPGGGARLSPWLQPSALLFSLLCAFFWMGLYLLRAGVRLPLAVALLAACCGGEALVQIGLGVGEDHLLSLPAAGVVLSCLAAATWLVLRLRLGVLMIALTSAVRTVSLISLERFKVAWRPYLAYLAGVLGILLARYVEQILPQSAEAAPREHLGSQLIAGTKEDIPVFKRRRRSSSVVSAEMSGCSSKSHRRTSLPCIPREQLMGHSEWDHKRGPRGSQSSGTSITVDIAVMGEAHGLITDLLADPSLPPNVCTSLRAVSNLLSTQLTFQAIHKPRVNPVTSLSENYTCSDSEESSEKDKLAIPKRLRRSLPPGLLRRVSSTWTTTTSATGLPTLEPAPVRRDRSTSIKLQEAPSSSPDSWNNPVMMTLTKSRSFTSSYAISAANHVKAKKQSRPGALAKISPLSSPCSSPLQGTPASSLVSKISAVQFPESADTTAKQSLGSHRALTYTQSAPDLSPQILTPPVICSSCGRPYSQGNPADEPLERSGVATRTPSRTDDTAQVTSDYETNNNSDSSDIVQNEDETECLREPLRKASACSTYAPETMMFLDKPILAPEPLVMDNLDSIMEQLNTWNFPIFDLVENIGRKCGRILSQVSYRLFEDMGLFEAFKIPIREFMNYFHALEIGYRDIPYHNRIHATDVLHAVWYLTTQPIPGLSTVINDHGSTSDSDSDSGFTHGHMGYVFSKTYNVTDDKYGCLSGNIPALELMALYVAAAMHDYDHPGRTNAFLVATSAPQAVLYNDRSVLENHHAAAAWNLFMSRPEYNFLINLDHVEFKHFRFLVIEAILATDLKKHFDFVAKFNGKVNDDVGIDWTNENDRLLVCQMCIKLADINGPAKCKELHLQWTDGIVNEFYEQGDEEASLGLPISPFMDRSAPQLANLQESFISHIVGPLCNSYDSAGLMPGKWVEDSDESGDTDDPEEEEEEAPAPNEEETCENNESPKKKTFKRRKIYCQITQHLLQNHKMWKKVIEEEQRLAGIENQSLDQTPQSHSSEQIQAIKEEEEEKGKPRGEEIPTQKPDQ
Experimental: Evaluation of the effects of compounds on the activity of the human phosphodiesterase-3A is quantified by measuring the formation of 5′AMP from cAMP using a human recombinant enzyme expressed in a clonal isolate of Spodoptera frugiperda cells (Sf9) cells.
The test compound, reference compound or water (control) are added to a buffer containing 40 mM tris(hydroxymethyl)aminomethane (Tris)/HCl (pH 7.4) and 8 mM MgCl2, 450 nMcAMP and 0.25 μCi [3H]cAMP.
Thereafter, the reaction is initiated by addition of the enzyme (about 1 U) and the mixture is incubated for 20 min at 22° C.
For basal control measurements, the enzyme is omitted from the reaction mixture.
Following incubation SPA beads are added. After 30 min at 22° C. under shaking, the amount of [^3H]5′AMP is quantified with a scintillation counter (Topcount, Packard).
The results are expressed as a percent inhibition of the control enzyme activity. The standard inhibitory reference compound is milrinone (CAS number 78415-72-2), which is tested in each experiment at several concentrations to obtain an inhibition curve from which its IC50 value is calculated.

human GLP-1R receptor = molecular target: T3, human GLP-1R receptor (Homo sapiens, UniProt P43220, L260F); assay: CHOK1 GLP-1R cAMP assay (HTRF); assay type: cell-based; settings: CHO-K1 cells stably expressing human GLP-1R
T3 construct: expressed in transfected cells; host or cells: CHO-K1 (ATCC CCL-61)
T3 sequence (P43220 24-463 L260F): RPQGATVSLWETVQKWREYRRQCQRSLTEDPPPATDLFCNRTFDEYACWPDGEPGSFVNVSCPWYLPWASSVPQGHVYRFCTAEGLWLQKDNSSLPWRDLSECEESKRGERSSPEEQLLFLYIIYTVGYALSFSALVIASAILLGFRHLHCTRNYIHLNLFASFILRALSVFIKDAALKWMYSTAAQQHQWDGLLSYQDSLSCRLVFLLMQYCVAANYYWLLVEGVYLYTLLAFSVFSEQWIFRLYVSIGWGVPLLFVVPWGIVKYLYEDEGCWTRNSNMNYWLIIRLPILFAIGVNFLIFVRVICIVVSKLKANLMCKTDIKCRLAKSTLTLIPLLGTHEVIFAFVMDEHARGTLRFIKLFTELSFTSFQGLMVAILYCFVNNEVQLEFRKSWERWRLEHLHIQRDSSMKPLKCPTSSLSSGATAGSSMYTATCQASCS
Experimental: A cell line stably expressing the human GLP-1R receptor (NM_002062.5, including the naturally-occurring variant Leu260Phe) in a CHO-K1 (ATCC® CCL-61™) was used for assay.
GLP-1 receptor mediated agonist activity was determined in a cell-based assay measuring cyclic adenosine monophosphate (cAMP) levels in cells using Homogeneous Time-Resolved Fluorescence (HTRF) cAMP detection kit (CisBio catalog #62AM4PEC, cAMP Gs Dynamic range kit). The cAMP detection method is based on a competitive immunoassay, in which cAMP produced by the cells and cAMP labeled with the dye d2 compete for binding to a Europium-Cryptate-labeled anti-cAMP antibody. The specific HTRF signal is inversely proportional to the concentration of cAMP.
Compounds were added to individual well in 384 well-assay plates (Greiner #784076) using an Echo (LabCyte) dispenser from 10 mM stocks. Varying concentration of compounds were added to wells, and DMSO was used to normalize each well to a volume of 100 nL. A dose response curve of GLP-1(7-36)NH2 (Bachem H-6795) was included in each run. 5 μL of cAMP concentration response standards are applied in specified wells in the assay plates. Cryo-preserved cells are thawed and resuspended in assay buffer pre-heated to 37° C. (20 mM 2-[4-(2-hydroxyethyl)piperazin-1-yl]ethanesulfonic acid (HEPES) pH 7.4, lx Hank's Balanced Salt Solution (HBSS, Life Technologies #14065) supplemented with 0.1% (w/v) bovine serum albumin (Sigma, A-7030)). Cells were centrifuged at 250*g for 5 min at rt, and resuspended in room tempered assay buffer to a final density of 0.16*10^6 cell/mL, to deliver 800 cells/well. 5 μL of assay buffer with 1 mM 3-isobutyl-1-methylxanthin (IBMX; Sigma cat I-7018) was dispensed per well in assay plates using a multidrop combi (Thermo Scientific) subsequently 5 μL of cell suspension was distributed to relevant wells in the assay using a multidrop dispenser. Assay plates were incubated 20 min at rt.
Detection reagents, Europium-Cryptate-labeled anti-cAMP antibody and cAMP labeled with the dye d2, are diluted in lysis buffer, provided by the manufacturer. 5 μL of each detection reagent is supplemented to each assay well using a multidrop dispenser. Assay plates are incubated in the dark for at least one h. The HTRF signal is measured using the HTRF module (excitation: 337 nm, emission A: 665 nm and emission B: 620 nm) in Pherastar FSX (BMG Labtech).
Raw data were converted to pM cAMP using the cAMP standard curve included in each run. Converted data were further analyzed in Genedata Screener (Genedata) and EC50 determinations were made from agonist dose-response curves analyzed with a curve fitting program using a 4-parameter logistic dose response equation (Equation y=A+((B−A)/1+((C/x)^D))) where A is no stimulation, B is full stimulation, C is the EC50 and D is the Hill slope). The percent effect was determined relative to a saturating concentration of a full GLP-1R agonist (GLP-1(7-36)NH2 has 100% effect in this assay setup).

T1 sequence (P43220 24-463): as the sequence (P43220 24-463 L260F) above, with F237L counted along it

Compound	EC50 (GLP-1R) [nM]	IC50 [1] [nM]	EC50 (human GLP-1R receptor) [nM]
COc1cc(C(=O)O)cc2c1nc(CN1CCN(c3cccc(OCc4ccc(C#N)cc4F)n3)[C@H]3CC[C@@H]31)n2C[C@@H]1CCO1 (single isomer, unassigned) [Example 4b, 2-(((1R*,6R*)-5-(6-((4-Cyano-2-fluorobenzyl)oxy)pyridin-2-yl)-2,5-diazabicyclo[4.2.0]octan-2-yl)methyl)-4-methoxy-1-(((S)-oxetan-2-yl)methyl)-1H-benzo[d]imidazole-6-carboxylic acid]	3	6500	0.6
N#Cc1ccc(COc2cccc(N3CCN(Cc4nc5cc(Cl)c(C(=O)O)cc5n4C[C@@H]4CCO4)[C@H]4CC[C@H]43)n2)c(F)c1 (single isomer, unassigned) [Example 7a]	7.2	2200	9.4
N#Cc1ccc(COc2cccc(N3CCN(Cc4nc5c(Cl)cc(C(=O)O)cc5n4C[C@@H]4CCO4)[C@H]4CC[C@H]43)n2)c(F)c1 (single isomer, unassigned) [Example 6d]	2.4	3000	3.5
N#Cc1ccc(COc2cccc(N3CCN(Cc4nc5c(Cl)cc(C(=O)O)cc5n4C[C@@H]4CCO4)[C@H]4CC[C@H]43)n2)c(F)c1 (single isomer, unassigned) [Example 6a]	1.9	2900	0.6
N#Cc1ccc(COc2cccc(C3CCN(Cc4nc5ccc(C(=O)O)cc5n4C[C@@H]4CCO4)CC3)n2)c(F)c1 [Ref Comp B, reference compound]		11000	
COc1cc(C(=O)O)cc2c1nc(CN1CCN(c3cccc(OCc4ccc(C#N)cc4F)n3)[C@H]3CC[C@@H]31)n2C[C@@H]1CCO1 (single isomer, unassigned) [Example 4a, 2-(((1R*,6R*)-5-(6-((4-Cyano-2-fluorobenzyl)oxy)pyridin-2-yl)-2,5-diazabicyclo[4.2.0]octan-2-yl)methyl)-4-methoxy-1-(((S)-oxetan-2-yl)methyl)-1H-benzo[d]imidazole-6-carboxylic acid]	5.5	3800	4

Second part, the compound after the results:

EC50 (GLP-1R) [nM]	IC50 [1] [nM]	EC50 (human GLP-1R receptor) [nM]	Compound
2.1	> 100000	0.5	COc1cc(C(=O)O)cc2c1nc(CN1CCN(c3cccc(OCc4ccc(Cl)cc4F)n3)[C@H]3CC[C@@H]31)n2C[C@@H]1CCO1 (single isomer, unassigned) [Example 5b, 2-(((1R*,6R*)-5-(6-((4-Chloro-2-fluorobenzyl)oxy)pyridin-2-yl)-2,5-diazabicyclo[4.2.0]octan-2-yl)methyl)-4-methoxy-1-(((S)-oxetan-2-yl)methyl)-1H-benzo[d]imidazole-6-carboxylic acid]
4	22000	1.5	O=C(O)c1cc(F)c2nc(CN3CCN(c4cccc(OCc5ccc(Cl)cc5F)n4)[C@@H]4COC[C@@H]43)n(C[C@@H]3CCO3)c2c1 (single isomer, unassigned) [Example 19a, 2-(((4aR*,7aS*)-4-(6-((4-Chloro-2-fluorobenzyl)oxy)pyridin-2-yl)hexahydrofuro[3,4-b]pyrazin-1(2H)-yl)methyl)-4-fluoro-1-(((S)-oxetan-2-yl)methyl)-1H-benzo[d]imidazole-6-carboxylic acid]
1.9	29000	0.63	COc1cc(C(=O)O)cc2c1nc(CN1CCN(c3cccc(OCc4ccc(Cl)cc4F)n3)[C@@H]3COC[C@@H]31)n2C[C@@H]1CCO1 (single isomer, unassigned) [Example 16a, 2-(((4aR*,7aS*)-4-(6-((4-Chloro-2-fluorobenzyl)oxy)pyridin-2-yl)hexahydrofuro[3,4-b]pyrazin-1(2H)-yl)methyl)-4-methoxy-1-(((S)-oxetan-2-yl)methyl)-1H-benzo[d]imidazole-6-carboxylic acid]
14	3500	2	N#Cc1ccc(COc2cccc(N3CCN(Cc4nc5ccc(C(=O)O)cc5n4C[C@@H]4CCO4)[C@H]4COC[C@H]43)n2)c(F)c1 (racemic) [Example 17, 2-(((4aRS,7aSR)-4-(6-((4-Cyano-2-fluorobenzyl)oxy)pyridin-2-yl)hexahydrofuro[3,4-b]pyrazin-1(2H)-yl)methyl)-1-(((S)-oxetan-2-yl)methyl)-1H-benzo[d]imidazole-6-carboxylic acid]
5.6	2500	8.1	N#Cc1ccc(COc2cccc(N3CCN(Cc4nc5c(Cl)cc(C(=O)O)cc5n4C[C@@H]4CCO4)[C@H]4CC[C@H]43)n2)c(F)c1 (single isomer, unassigned) [Example 6c]
8.7	11000	1.1	N#Cc1ccc(COc2cccc(N3CCN(Cc4nc5c(F)cc(C(=O)O)cc5n4C[C@@H]4CCO4)[C@H]4CC[C@@H]43)n2)c(F)c1 (single isomer, unassigned) [Example 3b, 2-(((1R*,6R*)-5-(6-((4-Cyano-2-fluorobenzyl)oxy)pyridin-2-yl)-2,5-diazabicyclo[4.2.0]octan-2-yl)methyl)-4-fluoro-1-(((S)-oxetan-2-yl)methyl)-1H-benzo[d]imidazole-6-carboxylic acid]
